In ChEMBL document CHEMBL3217489, “Minisci reactions: Versatile CH-functionalizations for medicinal chemists” (Medchemcomm, 2011):

Experiments:
Adenosine deaminase = target: T1, Adenosine deaminase (Bos taurus, UniProt P56658); experiment: Inhibition of calf duodenum adenosine deaminase
T1 sequence (P56658 whole entry): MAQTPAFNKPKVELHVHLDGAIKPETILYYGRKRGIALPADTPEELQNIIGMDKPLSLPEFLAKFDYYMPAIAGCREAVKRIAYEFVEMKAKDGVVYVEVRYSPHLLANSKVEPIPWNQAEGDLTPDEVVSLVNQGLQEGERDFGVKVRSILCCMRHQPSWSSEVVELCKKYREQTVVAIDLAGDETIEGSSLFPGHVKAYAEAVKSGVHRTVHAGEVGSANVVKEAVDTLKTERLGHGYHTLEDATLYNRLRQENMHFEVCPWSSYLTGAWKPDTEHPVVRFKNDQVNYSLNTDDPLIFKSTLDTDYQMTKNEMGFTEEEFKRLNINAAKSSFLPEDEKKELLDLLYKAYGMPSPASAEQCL

[1] = target: T2, Steroid 17-alpha-hydroxylase/17,20 lyase (Homo sapiens, UniProt P05093); experiment: Reversible inhibition of human cytochrome P450 17alpha
T2 sequence (P05093 whole entry): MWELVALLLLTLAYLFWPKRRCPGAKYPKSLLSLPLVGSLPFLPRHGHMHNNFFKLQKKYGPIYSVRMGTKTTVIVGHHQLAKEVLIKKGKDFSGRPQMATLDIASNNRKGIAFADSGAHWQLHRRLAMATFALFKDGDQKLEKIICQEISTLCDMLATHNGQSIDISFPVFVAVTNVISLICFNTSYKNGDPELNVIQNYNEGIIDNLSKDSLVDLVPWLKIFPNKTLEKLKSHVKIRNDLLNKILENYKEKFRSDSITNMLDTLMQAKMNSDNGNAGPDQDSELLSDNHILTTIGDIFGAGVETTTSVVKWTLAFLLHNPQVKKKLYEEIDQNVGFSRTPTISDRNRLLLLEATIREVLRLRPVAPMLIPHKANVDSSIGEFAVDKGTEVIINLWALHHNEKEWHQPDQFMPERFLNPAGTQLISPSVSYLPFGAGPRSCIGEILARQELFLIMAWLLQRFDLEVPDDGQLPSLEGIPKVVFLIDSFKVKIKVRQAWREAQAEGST

[2] = target: Neuronal acetylcholine receptor; alpha4/beta2 (Homo sapiens, UniProt P17787+P43681); experiment: Inhibition of alpha4beta2 nAChR (unknown origin); type: protein-complex assay
Sequence of Neuronal acetylcholine receptor; alpha4/beta2 (P17787 whole entry): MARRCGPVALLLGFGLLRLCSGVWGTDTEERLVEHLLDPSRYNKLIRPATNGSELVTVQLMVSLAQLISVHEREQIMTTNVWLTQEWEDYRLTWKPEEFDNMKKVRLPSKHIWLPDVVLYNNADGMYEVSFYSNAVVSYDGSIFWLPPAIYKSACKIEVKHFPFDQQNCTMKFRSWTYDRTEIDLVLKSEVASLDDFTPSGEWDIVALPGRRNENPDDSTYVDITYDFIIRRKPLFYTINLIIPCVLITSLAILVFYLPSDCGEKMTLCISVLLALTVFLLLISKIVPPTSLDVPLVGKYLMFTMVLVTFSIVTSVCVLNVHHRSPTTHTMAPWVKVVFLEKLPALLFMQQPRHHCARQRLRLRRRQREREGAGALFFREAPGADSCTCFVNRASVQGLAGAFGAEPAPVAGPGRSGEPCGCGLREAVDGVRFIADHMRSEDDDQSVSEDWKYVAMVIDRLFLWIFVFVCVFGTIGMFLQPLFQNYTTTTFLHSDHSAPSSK
Sequence of Neuronal acetylcholine receptor; alpha4/beta2 (P43681 whole entry): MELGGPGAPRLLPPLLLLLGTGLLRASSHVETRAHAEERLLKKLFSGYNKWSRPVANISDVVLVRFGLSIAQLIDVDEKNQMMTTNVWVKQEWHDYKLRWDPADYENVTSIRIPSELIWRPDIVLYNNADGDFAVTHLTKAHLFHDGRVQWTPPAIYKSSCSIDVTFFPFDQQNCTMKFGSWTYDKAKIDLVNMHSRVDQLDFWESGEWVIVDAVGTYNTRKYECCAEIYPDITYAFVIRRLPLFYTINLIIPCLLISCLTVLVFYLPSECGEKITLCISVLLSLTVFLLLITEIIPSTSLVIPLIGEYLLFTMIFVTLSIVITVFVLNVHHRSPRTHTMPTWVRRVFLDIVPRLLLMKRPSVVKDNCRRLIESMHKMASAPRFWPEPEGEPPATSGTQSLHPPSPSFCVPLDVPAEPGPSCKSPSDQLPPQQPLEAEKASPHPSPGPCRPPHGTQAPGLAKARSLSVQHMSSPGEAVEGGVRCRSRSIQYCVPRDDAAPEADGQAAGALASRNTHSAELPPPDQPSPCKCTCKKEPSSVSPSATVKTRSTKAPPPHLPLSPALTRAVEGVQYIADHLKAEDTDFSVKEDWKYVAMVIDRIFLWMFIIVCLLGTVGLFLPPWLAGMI

[3] = target: T2, Steroid 17-alpha-hydroxylase/17,20 lyase; experiment: Irreversible inhibition of human cytochrome P450 17alpha

| SMILES | Ki (Adenosine deaminase) | other results |
| --- | --- | --- |
| OCc1ncnc2c1ncn2[C@@H]1O[C@H](CO)[C@@H](O)[C@H]1O | 9400 nM |  |
| C[C@]12CC[C@H]3[C@@H](CC=C4C[C@@H](O)CC[C@@]43C)[C@@H]1CC[C@H]2c1ccncc1 |  | IC50 [1]: 27 nM |
| Clc1ccc2c(n1)CC1CNCC2C1 (racemic) |  | Ki [2]: 3.5 nM |
| Clc1cc2c(cn1)C1CNCC(C2)C1 (racemic) |  | Ki [2]: 0.5 nM |
| OCC1NC=Nc2c1ncn2[C@@H]1O[C@H](CO)[C@@H](O)[C@H]1O (single isomer, unassigned; diastereomer 1) | 760 nM |  |
| OCC1NC=Nc2c1ncn2[C@@H]1O[C@H](CO)[C@@H](O)[C@H]1O (single isomer, unassigned; diastereomer 2) | 12500 nM |  |
| C[C@]12CC[C@H](O)CC1=CC[C@@H]1[C@@H]2CC[C@]2(C)C(c3cccnc3)=CC[C@@H]12 [ABIRATERONE] |  | IC50 [3]: 5 nM |
| OC[C@H]1O[C@@H](n2cnc3cncnc32)[C@H](O)[C@@H]1O [NEBULARINE] | 9300 nM |  |
